PMC9181987, “Disclosing the Potential of Fluorinated Ionic Liquids as Interferon-Alpha 2b Delivery Systems” (Nanomaterials, 2022)

Experiments:
IFN-α 2b = biological target: T1, IFN-α 2b (Homo sapiens, UniProt P01563); assay: Microscale thermophoresis (MST) binding affinity of FILs with labelled IFN-α 2b; settings: for Kd: labelled IFN-α 2b 2.7 μM, 5 mM NaH2PO4 pH 7.4, 25 °C, ± = Kd confidence of the fitting
T1 construct: purchased Sigma-Aldrich SRP4595; host or cells: E. coli
Procedure: Several dilution series of 16 samples of 20 μL were prepared in triplicate for each studied system. All the solutions were prepared in the buffer of the protein, 5 mM of NaH2PO4 (pH = 7.4), and PCR tubes. In the first tube (1 out 16) 20 μL of FIL stock solution was added at twofold the maximum concentration defined for each assay. In the remaining 15 tubes, 10 μL of buffer was added, followed by the series dilution of the FIL. […] The selected concentrations cover the range where the distinct CACs are formed in each FIL. The excitation power was determined by a pre-test and set to 20% whereas the MST power was set to medium (standard). The assays were executed in standard capillaries and triplicates. The results were processed using the MO.Affinity Analysis v2.3 software (NanoTemper Technologies, Munich, Germany).
In the process of labelling, commonly, one amine per protein is labelled, statistically distributing the position of the dye. […] As explained in the experimental section, in each run of MST, a maximum concentration is chosen and is consecutively diluted in 16 capillaries.

[1] = Contact angle goniometry breakpoints; type: physicochemical; settings: 25°C
Procedure: The force tensiometer is equipped with a platinum Du Noüy ring to surface tension measurement and a thermostatic vessel connected to a bath circulator (RW-0535G, Lab. Companion, Daejeon, Republic of Korea) in order to keep the temperature of the solution constant. Next, 15 mL of each sample was placed in a glass container and left to equilibrate in the thermostatic vessel. After temperature equilibration, the surface tension was measured. The equipment is a standalone-controlled instrument, and the calibration was conducted with a calibration weight with a known mass before measuring the samples. Each sample was measured five times, and the reported surface tension was the average value with an uncertainty of ±0.22 mN/m. Each solution was then assessed by a KSV’s contact angle goniometer CAM100 (Biolin Scientific, Gothenburg, Sweden). A drop of each solution was placed on a Teflon surface with a Hamilton syringe. This equipment is a PC-controlled instrument, and the tilt was set to 0 degrees at the base of the drop and was recorded for 10 frames with an interval of 1 s. The contact angle was calculated for the left and right sides of the drop and the mean value was the resulting contact angle. At least five different drops of each solution were recorded, and the reported contact angle was the resulting average with an uncertainty of ±5%.

[2] = set-up: method as in doi:10.5772/INTECHOPEN.96336, doi:10.1016/j.molliq.2022.119285, PMID 25580898; settings: cited from earlier work
[3] = cited from earlier work
[4] = set-up: method as in earlier work; settings: 25°C, ref [1], cited from earlier work
[5] = 5 μg/mL IFN-α 2b + 5 mM NaH2PO4 (pH=7.4), 1st breakpoint
[6] = 5 μg/mL IFN-α 2b + 5 mM NaH2PO4 (pH=7.4), 2nd breakpoint
[7] = 5 μg/mL IFN-α 2b + 5 mM NaH2PO4 (pH=7.4), 3rd breakpoint
[8] = 5 μg/mL IFN-α 2b + 5 mM NaH2PO4 (pH=7.4), 4th breakpoint

T1 sequence (P01563 24-188): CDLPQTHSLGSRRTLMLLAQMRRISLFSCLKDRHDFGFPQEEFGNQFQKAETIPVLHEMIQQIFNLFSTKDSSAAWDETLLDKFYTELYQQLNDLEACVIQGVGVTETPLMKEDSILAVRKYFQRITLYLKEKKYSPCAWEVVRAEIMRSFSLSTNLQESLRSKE

## CCn1cc[n+](C)c1.O=S(=O)([O-])C(F)(F)C(F)(F)C(F)(F)C(F)(F)F [[C2C1Im][C4F9SO3], 1-Ethyl-3-methylimidazolium perfluorobutanesulfonate]
IFN-α 2b; assay 30 − 9.2 × 10^−4 mM FIL
  Kd: 0.136 ± 0.117 mM
IFN-α 2b; assay 80 − 2.4 × 10^−3 mM FIL
  Kd: 7.53 ± 5.61 mM
IFN-α 2b; assay 160 − 4.9 × 10^−3 mM FIL
  Kd: 40.5 ± 29.5 mM
IFN-α 2b; range of concentrations under the 1st CAC, only FIL monomers
  binding to IFN-α 2b (MST): no binding was detected
[1]; [5]
  CAC (wFIL), goniometer: 0.0009
  CAC, goniometer: 2.101 mmol⸱kg-1
[1]; [6]
  CAC (wFIL), goniometer: 0.0030
  CAC, goniometer: 7.288 mmol⸱kg-1
[1]; [7]
  CAC (wFIL), goniometer: 0.0157
  CAC, goniometer: 38.18 mmol⸱kg-1
[1]; [8]
  CAC (wFIL), goniometer: 0.0430
  CAC, goniometer: 104.7 mmol⸱kg-1
[1]; 5 mM NaH2PO4 (pH=7.4)
  CAC (wFIL), goniometer: 0.0329
  CAC, goniometer: 80.27 mmol⸱kg-1
[2]
  miscibility in water: full miscibility in water
[3]
  toxicity: negligible toxicity
[4]
  Amin, minimum area per surfactant molecule at the air/water interface: 0.64 nm2
[4]; Water
  10^6 Γmax, maximum surface excess concentration: 2.60 mol m-2
  CAC (wFIL), tensiometer: 0.0375
  CAC, tensiometer: 91.39 mmol⸱kg-1
  critical packing parameter Peq 8: 0.439
  critical packing parameter Peq 9: 0.442
  surface tension at CAC, γCAC: 24.5 mN m-1
  ΔG0ad, standard free energy of adsorption: -10.6 kcal/mol
  ΠCAC, efficacy to reduce the surface tension: 44.4 mN m-1
